Experimental data reported in patent publication US10336761B2, “TGFβ receptor antagonist” (BRISTOL-MYERS SQUIBB COMPANY, priority 2015, dated 2019).
pIC50: −log10 of the molar value.

target: HIS-TGFβR1 T204D (Homo sapiens (Human), UniProt P36897, T204D); test: HTRF probe-displacement assay, HIS-TGFβR1 T204D; type: binding; conditions: 1 hour at room temperature
Sequence (P36897 34-503 T204D): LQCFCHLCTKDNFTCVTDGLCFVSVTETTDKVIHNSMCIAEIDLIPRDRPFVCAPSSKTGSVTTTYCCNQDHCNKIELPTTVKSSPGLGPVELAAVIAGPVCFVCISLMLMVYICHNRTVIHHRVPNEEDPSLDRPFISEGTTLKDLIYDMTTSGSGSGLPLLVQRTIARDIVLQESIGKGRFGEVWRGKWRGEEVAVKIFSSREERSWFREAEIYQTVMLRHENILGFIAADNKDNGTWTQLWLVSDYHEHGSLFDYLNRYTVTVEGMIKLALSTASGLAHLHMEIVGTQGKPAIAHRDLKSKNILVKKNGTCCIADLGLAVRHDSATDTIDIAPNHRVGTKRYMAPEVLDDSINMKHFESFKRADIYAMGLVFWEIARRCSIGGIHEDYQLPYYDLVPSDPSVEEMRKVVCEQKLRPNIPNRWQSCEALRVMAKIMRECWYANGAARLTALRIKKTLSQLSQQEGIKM

| SMILES | pIC50 |
| --- | --- |
| COc1cccc(-c2nc(Nc3ccnc(NCC(C)(C)O)c3)c3c(C)ccn3n2)n1 [Example 138, 1-[(4-{[2-(6-methoxypyridin-2-yl)-5-methylpyrrolo[2,1-f][1,2,4]triazin-4-yl]amino}pyridin-2-yl)amino]-2-methylpropan-2-ol] | 5.18 |
| COc1cccc(-c2nc(Nc3ccncc3F)c3c(C(O)CN4CCC(N(C)C)CC4)ccn3n2)n1 (stereo not drawn) [Example 30, 2-[4-(dimethylamino)piperidin-1-yl]-1-{4-[(3-fluoropyridin-4-yl)amino]-2-(6-methoxypyridin-2-yl)pyrrolo[2,1-f][1,2,4]triazin-5-yl}ethan-1-ol] | 6.59 |
| CC(C)(C)OCCNC(=O)c1cnccc1Nc1nc(-c2cccc(C(F)F)n2)nn2cccc12 [Example 173, N-[2-(tert-butoxy)ethyl]-4-({2-[6-(difluoromethyl)pyridin-2-yl]pyrrolo[2,1-f][1,2,4]triazin-4-yl}amino)pyridine-3-carboxamide] | 7.32 |
| COc1cccc(-c2nc(Nc3ccncc3F)c3c(OCCN4CCCC4)ccn3n2)n1 [Example 45, 3-fluoro-N-[2-(6-methoxypyridin-2-yl)-5-[2-(pyrrolidin-1-yl)ethoxy]pyrrolo[2,1-f][1,2,4]triazin-4-yl]pyridin-4-amine] | 5.31 |
| COc1cccc(-c2nc(NCc3ccncc3)c3cccn3n2)n1 [Example 31, 2-(6-methoxypyridin-2-yl)-N-(pyridin-4-ylmethyl)pyrrolo[2,1-f][1,2,4]triazin-4-amine] | 6.09 |
| Fc1cnccc1Nc1nc(-c2cc(Cl)ccn2)nn2cccc12 [Example 63, N-[2-(4-chloropyridin-2-yl)pyrrolo[2,1-f][1,2,4]triazin-4-yl]-3-fluoropyridin-4-amine] | 6.82 |
| COc1cccc(-c2nc(Nc3ccncc3F)c3cc(NC(=O)CN)cn3n2)n1 [Example 109, 2-amino-N-{4-[(3-fluoropyridin-4-yl)amino]-2-(6-methoxypyridin-2-yl)pyrrolo[2,1-f][1,2,4]triazin-6-yl}acetamide] | 5.80 |
| Fc1cnccc1Nc1nc(-c2ccc(C(F)(F)F)cn2)nn2cccc12 [Example 248, 3-fluoro-N-{2-[5-(trifluoromethyl)pyridin-2-yl]pyrrolo[2,1-f][1,2,4]triazin-4-yl}pyridin-4-amine] | 7.15 |
| O=C(NCCN1CCCCC1)c1cnccc1Nc1nc(-c2cccc(C(F)(F)F)n2)nn2cccc12 [Example 171, N-[2-(piperidin-1-yl)ethyl]-4-({2-[6-(trifluoromethyl)pyridin-2-yl]pyrrolo[2,1-f][1,2,4]triazin-4-yl}amino)pyridine-3-carboxamide] | 6.92 |
| COc1cccc(-c2nc(Nc3ccncc3F)c3c(CCN4CCOCC4)ccn3n2)n1 [Example 113, 3-fluoro-N-[2-(6-methoxypyridin-2-yl)-5-[2-(morpholin-4-yl)ethyl]pyrrolo[2,1-f][1,2,4]triazin-4-yl]pyridin-4-amine] | 6.92 |

The next compounds have a higher pIC50 than those just listed; values first:

| pIC50 | SMILES |
| --- | --- |
| 7.49 | CN1CCN(Cc2ccn3nc(-c4cccc(C(F)(F)F)n4)nc(Nc4ccncc4F)c23)CC1 [Example 26, 3-fluoro-N-{5-[(4-methylpiperazin-1-yl)methyl]-2-[6-(trifluoromethyl)pyridin-2-yl]pyrrolo[2,1-f][1,2,4]triazin-4-yl}pyridin-4-amine] |
| 9.24 | OC1CCN(Cc2ccn3nc(-c4ccccn4)nc(Nc4ccncc4F)c23)CC1 [Example 243, 1-({4-[(3-fluoropyridin-4-yl)amino]-2-(pyridin-2-yl)pyrrolo[2,1-f][1,2,4]triazin-5-yl}methyl)piperidin-4-ol] |
| 9.60 | CC(=O)Nc1cc(Nc2nc(-c3ccccn3)nn3ccc(CN4CCOCC4)c23)ccn1 [Example 293, N-(4-{[5-(morpholin-4-ylmethyl)-2-(pyridin-2-yl)pyrrolo[2,1-f][1,2,4]triazin-4-yl]amino}pyridin-2-yl)acetamide] |
| 8.27 | COc1cccc(-c2nc(Nc3ccncc3Cl)c3cccn3n2)n1 [Example 60, 3-chloro-N-[2-(6-methoxypyridin-2-yl)pyrrolo[2,1-f][1,2,4]triazin-4-yl]pyridin-4-amine] |
| 8.80 | CCC[C@@H](CO)NCc1ccn2nc(-c3ccccn3)nc(Nc3ccncc3F)c12 [Example 273, (2S)-2-[({4-[(3-fluoropyridin-4-yl)amino]-2-(pyridin-2-yl)pyrrolo[2,1-f][1,2,4]triazin-5-yl}methyl)amino]pentan-1-ol] |
| 9.10 | N#CCCC(=O)Nc1cc(Nc2nc(-c3cccc(C(F)(F)F)n3)nn3cccc23)ccn1 [Example 338, 3-cyano-N-[4-({2-[6-(trifluoromethyl)pyridin-2-yl]pyrrolo[2,1-f][1,2,4]triazin-4-yl}amino)pyridin-2-yl]propanamide] |
| 8.92 | CC(=O)Nc1cc(Nc2nc(-c3ccccn3)nn3ccc(CN4CCN(CCO)CC4)c23)ccn1 [Example 250, N-{4-[(5-{[4-(2-hydroxyethyl)piperazin-1-yl]methyl}-2-(pyridin-2-yl)pyrrolo[2,1-f][1,2,4]triazin-4-yl)amino]pyridin-2-yl}acetamide] |
| 8.22 | CC(C)(O)CNCc1ccn2nc(-c3cccc(C(F)(F)F)n3)nc(Nc3ccncc3F)c12 [Example 124, 1-[({4-[(3-fluoropyridin-4-yl)amino]-2-[6-(trifluoromethyl)pyridin-2-yl]pyrrolo[2,1-f][1,2,4]triazin-5-yl}methyl)amino]-2-methylpropan-2-ol] |
| 7.72 | CCN(CC)CCNC(=O)c1cnccc1Nc1nc(-c2ccccn2)nn2cccc12 [Example 143, N-[2-(diethylamino)ethyl]-4-{[2-(pyridin-2-yl)pyrrolo[2,1-f][1,2,4]triazin-4-yl]amino}pyridine-3-carboxamide] |
| 9.24 | CC(C)(NCc1ccn2nc(-c3ccccn3)nc(Nc3ccncc3F)c12)c1ccccn1 [Example 301, 3-fluoro-N-[2-(pyridin-2-yl)-5-({[2-(pyridin-2-yl)propan-2-yl]amino}methyl)pyrrolo[2,1-f][1,2,4]triazin-4-yl]pyridin-4-amine] |
| 7.66 | Cc1cccc(-c2nc(Nc3ccncc3C(=O)NCCN3CCS(=O)(=O)CC3)c3cccn3n2)n1 [Example 153, N-[2-(1,1-dioxo-1,4-thiomorpholin-4-yl)ethyl]-4-{[2-(6-methylpyridin-2-yl)pyrrolo[2,1-f][1,2,4]triazin-4-yl]amino}pyridine-3-carboxamide] |
| 8.37 | O=C(c1cnccc1Nc1nc(-c2cccc(C(F)F)n2)nn2cccc12)N1CCC1 [Example 189, 3-(azetidine-1-carbonyl)-N-{2-[6-(difluoromethyl)pyridin-2-yl]pyrrolo[2,1-f][1,2,4]triazin-4-yl}pyridin-4-amine] |
| 9.34 | Fc1cnccc1Nc1nc(-c2ccc(F)c(C(F)F)n2)nn2cccc12 [Example 66, N-{2-[6-(difluoromethyl)-5-fluoropyridin-2-yl]pyrrolo[2,1-f][1,2,4]triazin-4-yl}-3-fluoropyridin-4-amine] |
| 7.68 | CC(C)(O)CCNC(=O)c1cnccc1Nc1nc(-c2cccc(C(F)F)n2)nn2cccc12 [Example 187, 4-({2-[6-(difluoromethyl)pyridin-2-yl]pyrrolo[2,1-f][1,2,4]triazin-4-yl}amino)-N-(3-hydroxy-3-methylbutyl)pyridine-3-carboxamide] |
